Measurements from patent US20050124562A1, “Bis-quinazoline compounds for the treatment of bacterial infections” (priority 2003, published 2005).

Key:
Format in all cases: cell-based
[1] = test system: M. catarrhalis; test: Broth microdilution MIC (NCCLS), M. catarrhalis; settings: Moraxella catarrhalis; some strains of M. catarrhalis; read-out: MIC range
Method: (§1) Representative bis-quinazolines were tested for antibacterial activity using the […] microdilution method to determine their minimum inhibitory concentrations (MICs). All compounds were tested using standard methods in accordance with NCCLS guidelines (National Committee for Clinical Laboratory Standards. 2003. Methods for dilution antimicrobial susceptibility testing for bacteria that grow aerobically. Approved Standard M-7 A-6, NCCLS, Wayne, Pa.). The bacterial strains used in the susceptibility tests were obtained from the American Type Culture Collection (ATCC) and included resistant phenotypes such as oxacillin-resistant S. aureus (ORSA) and vancomycin-resistant enterococci (VRE). The minimum bactericidal concentrations (MBCs) were determined for selected organisms. The effect of protein binding on the antibacterial activity of representative bis-quinazolines were determined by conducting MIC tests in the presence of human serum.

[2] = test system: H. influenzae; test: Broth microdilution MIC (NCCLS), H. influenzae; settings: Haemophilus influenzae; some strains of H. influenzae
Method: as §1

[3] = test system: S. aureus, E. faecalis, S. pyogenes and S. pneumoniae; test: Broth microdilution MIC (NCCLS), gram-positive strains; settings: range against some strains of S. aureus, E. faecalis, S. pyogenes and S. pneumoniae; read-out: MIC
Summary of the method: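 MICs by broth microdilution per NCCLS M-7 A-6 against ATCC strains, including ORSA and VRE; MBCs determined for selected organisms. Serum effect assessed by repeating MIC tests with human serum present.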

[4] = test system: efflux mutants of E. coli; test: Broth microdilution MIC (NCCLS), E. coli efflux mutants; settings: Escherichia coli, read-out: MICs
Method: as §1

[5] = test system: efflux mutants of P. aeruginosa; test: Broth microdilution MIC (NCCLS), P. aeruginosa efflux mutants; settings: Pseudomonas aeruginosa, read-out: MICs
Method: as §1

Row | SMILES | MIC [1] [µg/mL] | MIC [2] [µg/mL] | MIC [3] [µg/mL] | MIC [4] [µg/mL] | MIC [5] [µg/mL]
1 | COCCOc1ccc2nc(Nc3nc(O)c4c(OC)cccc4n3)nc(C)c2c1.O=C(O)C(F)(F)F [Example 88, 5-Methoxy-2-[6-(2-methoxy-ethoxy)-4-methyl-quinazolin-2-ylamino]-quinazolin-4-ol trifluoroacetate salt] | 2 to 64 | 16 to 32 | 0.06 to 16 | 16 to 64 | 64
2 | COCCOc1cc2nc(Nc3nc(O)c4cccc(OC)c4n3)nc(C)c2cc1OCCOC.O=C(O)C(F)(F)F [Example 89, 2-[6,7-Bis-(2-methoxy-ethoxy)-4-methyl-quinazolin-2-ylamino]-8-methoxy-quinazolin-4-ol trifluoroacetate salt] | 2 to 64 | 16 to 32 | 0.06 to 16 | 16 to 64 | 64
3 | COc1cc2nc(Nc3nc(O)c4c(OC)cccc4n3)nc(CF)c2cc1OC.O=C(O)C(F)(F)F [Example 90, 2-(4-Fluoromethyl-6,7-dimethoxy-quinazolin-2-ylamino)-5-methoxy-quinazolin-4-ol trifluoroacetate salt] | 2 to 64 | 16 to 32 | 0.06 to 16 | 16 to 64 | 64
4 | COc1cccc2c(O)nc(Nc3nc(C)c4c(OC)ccc(C)c4n3)nc12.O=C(O)C(F)(F)F [Example 91, 8-Methoxy-2-(5-methoxy-4,8-dimethyl-quinazolin-2-ylamino)-quinazolin-4-ol trifluoroacetate salt] | 2 to 64 | 16 to 32 | 0.06 to 16 | 16 to 64 | 64
5 | COc1cc2c(C)nc(Nc3nc(O)c4c(OC)cccc4n3)nc2cc1F.O=C(O)C(F)(F)F [Example 94, 2-(7-Fluoro-6-methoxy-4-methyl-quinazolin-2-ylamino)-5-methoxy-quinazolin-4-ol trifluoroacetate salt] | 2 to 64 | 16 to 32 | 0.06 to 16 | 16 to 64 | 64
6 | COc1ccc(OC)c2c(O)nc(Nc3nc(C)c4ccc5c(c4n3)OCCO5)nc12.O=C(O)C(F)(F)F [Example 95, 5,8-Dimethoxy-2-(8-methyl-2,3-dihydro-1,4-dioxa-5,7-diaza-phenanthren-6-ylamino)-quinazolin-4-ol trifluoroacetate salt] | 2 to 64 | 16 to 32 | 0.06 to 16 | 16 to 64 | 64
7 | COc1cc2nc(Nc3nc(O)c4cccc(F)c4n3)nc(C)c2cc1OC.O=C(O)C(F)(F)F [Example 96, 2-(6,7-Dimethoxy-4-methyl-quinazolin-2-ylamino)-8-fluoro-quinazolin-4-ol trifluoroacetate salt] | 2 to 64 | 16 to 32 | 0.06 to 16 | 16 to 64 | 64
8 | CCOc1cccc2c(O)nc(Nc3nc(C)c4cc(OC)c(OC)cc4n3)nc12.O=C(O)C(F)(F)F [Example 97, 2-(6,7-Dimethoxy-4-methyl-quinazolin-2-ylamino)-8-ethoxy-quinazolin-4-ol trifluoroacetate salt] | 2 to 64 | 16 to 32 | 0.06 to 16 | 16 to 64 | 64
9 | COc1cc(OC)c2nc(Nc3nc(O)c4cccc(F)c4n3)nc(C)c2c1.O=C(O)C(F)(F)F [Example 98, 2-(6,8-Dimethoxy-4-methyl-quinazolin-2-ylamino)-8-fluoro-quinazolin-4-ol trifluoroacetate salt] | 2 to 64 | 16 to 32 | 0.06 to 16 | 16 to 64 | 64
10 | COc1cc2nc(Nc3nc(O)c4c(OC)ccc(OC)c4n3)nc(C)c2cc1OC.O=C(O)C(F)(F)F [Example 99, 2-(6,7-Dimethoxy-4-methyl-quinazolin-2-ylamino)-5,8-dimethoxy-quinazolin-4-ol trifluoroacetate salt] | 2 to 64 | 16 to 32 | 0.06 to 16 | 16 to 64 | 64
11 | COCCOc1ccc2nc(Nc3nc(C)c4cc(OC)c(OC)cc4n3)nc(O)c2c1.O=C(O)C(F)(F)F [Example 102, 2-(6,7-Dimethoxy-4-methyl-quinazolin-2-ylamino)-6-(2-methoxy-ethoxy)-quinazolin-4-ol trifluoroacetate salt] | 2 to 64 | 16 to 32 | 0.06 to 16 | 16 to 64 | 64
12 | COc1cc2c(C)nc(Nc3nc(O)c4cccc(F)c4n3)nc2cc1O.O=C(O)C(F)(F)F [Example 104, 2-(8-Fluoro-4-hydroxy-quinazolin-2-ylamino)-6-methoxy-4-methyl-quinazolin-7-ol trifluoroacetate salt] | 2 to 64 | 16 to 32 | 0.06 to 16 | 16 to 64 | 64
13 | Cc1nc(Nc2nc(O)c3cccc(F)c3n2)nc2cc3c(cc12)OCCO3.O=C(O)C(F)(F)F [Example 108, 8-Fluoro-2-(4-methyl-7,8-dihydro-[1,4]dioxino[2,3-g]quinazolin-2-ylamino)-quinazolin-4-ol trifluoroacetate salt] | 2 to 64 | 16 to 32 | 0.06 to 16 | 16 to 64 | 64
14 | CCN(CC)CCOc1ccc2nc(Nc3nc(O)c4cccc(OC)c4n3)nc(C)c2c1.O=C(O)C(F)(F)F [Example 115, 2-[6-(2-Diethylamino-ethoxy)-4-methyl-quinazolin-2-ylamino]-8-methoxy-quinazolin-4-ol trifluoroacetate salt] | 2 to 64 | 16 to 32 | 0.06 to 16 | 16 to 64 | 64
15 | COc1cc2nc(Nc3nc(O)c4cc(N)cc(C)c4n3)nc(C)c2cc1OC.O=C(O)C(F)(F)F [Example 120, 6-Amino-2-(6,7-dimethoxy-4-methyl-quinazolin-2-ylamino)-8-methyl-quinazolin-4-ol trifluoroacetate salt] | 2 to 64 | 16 to 32 | 0.06 to 16 | 16 to 64 | 64
16 | COc1cc2nc(Nc3nc(O)c4cc(N(C)C)cc(C)c4n3)nc(C)c2cc1OC.O=C(O)C(F)(F)F [Example 121, 2-(6,7-Dimethoxy-4-methyl-quinazolin-2-ylamino)-6-dimethylamino-8-methyl-quinazolin-4-ol trifluoroacetate salt] | 2 to 64 | 16 to 32 | 0.06 to 16 | 16 to 64 | 64
17 | CCN(CC)CCOc1ccc2nc(Nc3nc(O)c4cc(N)cc(C)c4n3)nc(C)c2c1.O=C(O)C(F)(F)F [Example 125, 6-Amino-2-[6-(2-diethylamino-ethoxy)-4-methyl-quinazolin-2-ylamino]-8-methyl-quinazolin-4-ol trifluoroacetate salt] | 2 to 64 | 16 to 32 | 0.06 to 16 | 16 to 64 | 64
18 | COc1cccc2c(C)nc(Nc3nc(O)c4cc(OCCN5CCC(O)C5)ccc4n3)nc12.O=C(O)C(F)(F)F (stereo not drawn) [Example 138, 6-[2-(3-Hydroxy-pyrrolidin-1-yl)-ethoxy]-2-(8-methoxy-4-methyl-quinazolin-2-ylamino)-quinazolin-4-ol trifluoroacetate salt] | 2 to 64 | 16 to 32 | 0.06 to 16 | 16 to 64 | 64
